Converted amounts (≈) assume the structure as drawn.
Test system: Mycobacterium tuberculosis H37Rv
Assay: Mycobacterium tuberculosis H37Rv Inhibition Assay (Whole Cell Assay)
Type: cell-based
Conditions: ATCC 25618 / H37Rv, H37Rv strain (ATCC25618), Middlebrook 7H9, six days at 37° C., resazurin fluorescence after 48 hours

Compound | MIC [µM]
Cc1ccc([C@H]2C[C@@H](C(F)(F)F)n3ncc(C(=O)NCc4ccc(F)c(F)c4)c3N2)cc1 (relative stereo) [Example 31, Cis-N-(3,4-difluorobenzyl)-5-(p-tolyl)-7-(trifluoromethyl)-4,5,6,7-tetrahydropyrazolo[1,5-a]pyrimidine-3-carboxamide] | ≤ 1
CCc1ccc([C@H]2C[C@@H](C(F)F)n3ncc(C(=O)NCc4ccc(OC)cc4)c3N2)cc1 (relative stereo) [Example 32, Cis-7-(difluoromethyl)-5-(4-ethylphenyl)-N-(4-methoxybenzyl)-4,5,6,7-tetrahydropyrazolo[1,5-a]pyrimidine-3-carboxamide] | ≤ 1
CCc1ccc([C@H]2C[C@@H](C(F)F)n3ncc(C(=O)NCc4ccc(C)cc4)c3N2)cc1 (relative stereo) [Example 33, Cis-7-(difluoromethyl)-5-(4-ethylphenyl)-N-(4-methylbenzyl)-4,5,6,7-tetrahydropyrazolo[1,5-a]pyrimidine-3-carboxamide] | ≤ 1
CCc1ccc([C@H]2C[C@@H](C(F)F)n3ncc(C(=O)NCc4ccc5c(c4)OCO5)c3N2)cc1 (relative stereo) [Example 34, Cis-N-(benzo[d][1,3]dioxol-5-ylmethyl)-7-(difluoromethyl)-5-(4-ethylphenyl)-4,5,6,7-tetrahydropyrazolo[1,5-a]pyrimidine-3-carboxamide] | ≤ 1
CCc1ccc([C@H]2C[C@@H](C(C)(C)C)n3ncc(C(=O)NCc4ccc(OC)cc4)c3N2)cc1 (relative stereo) [Example 35, Cis-7-(tert-butyl)-5-(4-ethylphenyl)-N-(4-methoxybenzyl)-4,5,6,7-tetrahydropyrazolo[1,5-a]pyrimidine-3-carboxamide] | ≤ 1
CCc1ccc([C@H]2C[C@@H](C(C)(C)C)n3ncc(C(=O)NCc4ccc5c(c4)OCO5)c3N2)cc1 (relative stereo) [Example 36, Cis-N-(benzo[d][1,3]-dioxol-5-ylmethyl)-7-(tert-butyl)-5-(4-ethylphenyl)-4,5,6,7-tetrahydropyrazolo[1,5-a]pyrimidine-3-carboxamide] | 1 to 2 (≈ 0.461 to 0.921 µg/mL)
COc1ccc(CNC(=O)c2cnn3c2N[C@@H](c2ccc(Br)cc2)C[C@H]3C(F)(F)F)cc1 (relative stereo) [Example 42, Cis-5-(4-bromophenyl)-N-(4-methoxybenzyl)-7-(trifluoromethyl)-4,5,6,7-tetrahydropyrazolo[1,5-a]pyrimidine-3-carboxamide] | > 2
Cc1ccc([C@H]2C[C@@H](C(F)(F)F)n3ncc(C(=O)NCc4ccccc4C(F)(F)F)c3N2)cc1 (relative stereo) [Example 43, Cis-5-(p-tolyl)-7-(trifluoromethyl)-N-(2-(trifluoromethyl)benzyl)-4,5,6,7-tetrahydropyrazolo[1,5-a]pyrimidine-3-carboxamide] | > 2
CCc1ccc([C@H]2C[C@@H](C(F)(F)F)n3ncc(C(=O)NCc4ccccc4C(F)(F)F)c3N2)cc1 (relative stereo) [Example 44, Cis-5-(4-ethylphenyl)-7-(trifluoromethyl)-N-(2-(trifluoromethyl)benzyl)-4,5,6,7-tetrahydropyrazolo[1,5-a]pyrimidine-3-carboxamide] | > 2
CCc1ccc([C@H]2C[C@@H](C(F)(F)F)n3ncc(C(=O)NCc4ccccc4OC)c3N2)cc1 (relative stereo) [Example 45, Cis-5-(4-ethylphenyl)-N-(2-methoxybenzyl)-7-(trifluoromethyl)-4,5,6,7-tetrahydropyrazolo[1,5-a]pyrimidine-3-carboxamide] | > 2
CCc1ccc([C@H]2C[C@@H](C(F)(F)F)n3ncc(C(=O)NCc4ccc(OC)cc4OC)c3N2)cc1 (relative stereo) [Example 46, Cis-N-(2,4-dimethoxybenzyl)-5-(4-ethylphenyl)-7-(trifluoromethyl)-4,5,6,7-tetrahydropyrazolo[1,5-a]pyrimidine-3-carboxamide] | > 2

Reference: patent US20140038989A1, “TETRAHYDROPYRAZOLO [1,5-A] PYRIMIDINE AS ANTI-TUBERCULOSIS COMPOUNDS” (Glaxo Group Limited, priority 2011, published 2014)
